Where a name gives a salt, the structure may show the parent alone.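 Cultured in 96-well plates, cells were exposed to test compound for 48 hours across five concentrations. At the GI50, growth is halved.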 Active and inactive are the calls of the source. Rule as the data show it: active = GI50 up to about 1.1 µM and inactive = higher.
Assays:
Test in all cases: NCI tumour cell line growth inhibition, 48 h
SF-539 = test system: SF-539
BT-549 = test system: BT-549
HT-29 = test system: HT-29
K562 = test system: K562
LOX IMVI = test system: LOX IMVI
MDA-MB-231 = test system: MDA-MB-231
786-0 = test system: 786-0
KM12 = test system: KM12
OVCAR-3 = test system: OVCAR-3
HOP-62 = test system: HOP-62
NCI-H522 = test system: NCI-H522
SR = test system: SR
OVCAR-5 = test system: OVCAR-5
SK-MEL-2 = test system: SK-MEL-2
OVCAR-4 = test system: OVCAR-4
OVCAR-8 = test system: OVCAR-8
ACHN = test system: ACHN
MDA-N = test system: MDA-N
SNB-19 = test system: SNB-19
MOLT-4 = test system: MOLT-4

With CC(SCc1ccccc1)C(=O)O (stereo not given) the GI50 (SF-539) was > 100 µM (inactive), the GI50 (BT-549) was > 100 µM (inactive) and the GI50 (HT-29) was > 100 µM (inactive). For the same compound, the GI50 (K562) was > 100 µM (inactive), the GI50 (LOX IMVI) was > 100 µM (inactive) and the GI50 (MDA-MB-231) was > 100 µM (inactive). The GI50 (786-0) was > 100 µM (inactive), the GI50 (KM12) was > 100 µM (inactive) and the GI50 (OVCAR-3) was > 100 µM (inactive). For the same compound, the GI50 (HOP-62) was > 100 µM (inactive), the GI50 (NCI-H522) was > 100 µM (inactive) and the GI50 (SR) was > 100 µM (inactive). For the same compound, the GI50 (OVCAR-5) was > 100 µM (inactive), the GI50 (SK-MEL-2) was > 100 µM (inactive) and the GI50 (OVCAR-4) was > 100 µM (inactive). For the same compound, the GI50 (OVCAR-8) was > 100 µM (inactive), the GI50 (ACHN) was > 100 µM (inactive) and the GI50 (MDA-N) was > 100 µM (inactive). For the same compound, the GI50 (SNB-19) was > 100 µM (inactive) and the GI50 (MOLT-4) was > 100 µM (inactive).
In the case of CC[C@@H]1C(=O)OC[C@@H]1Cc1cncn1C [PILOCARPINE HYDROCHLORIDE], the GI50 (SF-539) is reported as > 100 µM (inactive), the GI50 (BT-549) is reported as > 100 µM (inactive) and the GI50 (HT-29) is reported as > 100 µM (inactive). The GI50 (K562) was > 100 µM (inactive), the GI50 (LOX IMVI) was > 100 µM (inactive) and the GI50 (MDA-MB-231) was > 100 µM (inactive). The GI50 (786-0) was > 100 µM (inactive), the GI50 (KM12) was > 100 µM (inactive) and the GI50 (OVCAR-3) was > 100 µM (inactive). For the same compound, the GI50 (HOP-62) was > 100 µM (inactive), the GI50 (NCI-H522) was > 100 µM (inactive) and the GI50 (SR) was > 100 µM (inactive). For the same compound, the GI50 (OVCAR-5) was > 100 µM (inactive), the GI50 (SK-MEL-2) was > 100 µM (inactive) and the GI50 (OVCAR-4) was > 100 µM (inactive). For the same compound, the GI50 (OVCAR-8) was > 100 µM (inactive), the GI50 (ACHN) was > 100 µM (inactive) and the GI50 (MDA-N) was > 100 µM (inactive). For the same compound, the GI50 (SNB-19) was > 100 µM (inactive) and the GI50 (MOLT-4) was > 100 µM (inactive).
With COc1cc(O)c2c(=O)c3ccccc3n(C)c2c1 the GI50 (SF-539) was 28.4 µM (inactive), the GI50 (BT-549) was 52.2 µM (inactive) and the GI50 (HT-29) was > 100 µM (inactive). The GI50 (K562) was > 100 µM (inactive), the GI50 (LOX IMVI) was 84.5 µM (inactive) and the GI50 (MDA-MB-231) was 71.3 µM (inactive). For the same compound, the GI50 (786-0) was 21.5 µM (inactive), the GI50 (KM12) was > 100 µM (inactive) and the GI50 (OVCAR-3) was > 100 µM (inactive). The GI50 (HOP-62) was 15.9 µM (inactive), the GI50 (NCI-H522) was 22.3 µM (inactive) and the GI50 (SR) was 7.26 µM (inactive). The GI50 (OVCAR-5) was > 100 µM (inactive), the GI50 (SK-MEL-2) was > 100 µM (inactive) and the GI50 (OVCAR-4) was 89.3 µM (inactive). For the same compound, the GI50 (OVCAR-8) was 18.7 µM (inactive), the GI50 (ACHN) was 14 µM (inactive) and the GI50 (MDA-N) was > 100 µM (inactive). The GI50 (SNB-19) was 0.253 µM (active) and the GI50 (MOLT-4) was 8.43 µM (inactive).
In the case of CN(CCCCN1CCCC1)CCCN(C)C(=O)Cc1ccc(Cl)c(Cl)c1, the GI50 (SF-539) is reported as 7.38 µM (inactive), the GI50 (BT-549) is reported as 16 µM (inactive) and the GI50 (HT-29) is reported as 4.45 µM (inactive). The GI50 (K562) was 3.05 µM (inactive), the GI50 (LOX IMVI) was 11.9 µM (inactive) and the GI50 (MDA-MB-231) was 10.2 µM (inactive). For the same compound, the GI50 (786-0) was 12.9 µM (inactive), the GI50 (KM12) was 12.5 µM (inactive) and the GI50 (OVCAR-3) was 19.1 µM (inactive). The GI50 (HOP-62) was 13.9 µM (inactive), the GI50 (NCI-H522) was 13.1 µM (inactive) and the GI50 (SR) was 3.3 µM (inactive). For the same compound, the GI50 (OVCAR-5) was 29.6 µM (inactive), the GI50 (SK-MEL-2) was 7.94 µM (inactive) and the GI50 (OVCAR-4) was 20 µM (inactive). The GI50 (OVCAR-8) was 24.4 µM (inactive), the GI50 (ACHN) was 35.7 µM (inactive) and the GI50 (MDA-N) was 4.27 µM (inactive). The GI50 (SNB-19) was 23.7 µM (inactive) and the GI50 (MOLT-4) was 8.91 µM (inactive).
For CCSc1nnc2c(-c3ccccc3)n[nH]c2n1, the GI50 (SF-539) was 90.8 µM (inactive), the GI50 (BT-549) was > 100 µM (inactive) and the GI50 (HT-29) was > 100 µM (inactive). The GI50 (K562) was > 100 µM (inactive), the GI50 (LOX IMVI) was > 100 µM (inactive) and the GI50 (MDA-MB-231) was > 100 µM (inactive). For the same compound, the GI50 (786-0) was 86.7 µM (inactive), the GI50 (KM12) was > 100 µM (inactive) and the GI50 (OVCAR-3) was > 100 µM (inactive). For the same compound, the GI50 (HOP-62) was 59.8 µM (inactive), the GI50 (NCI-H522) was > 100 µM (inactive) and the GI50 (SR) was > 100 µM (inactive). The GI50 (OVCAR-5) was > 100 µM (inactive), the GI50 (SK-MEL-2) was > 100 µM (inactive) and the GI50 (OVCAR-4) was > 100 µM (inactive). For the same compound, the GI50 (OVCAR-8) was 66.8 µM (inactive), the GI50 (ACHN) was > 100 µM (inactive) and the GI50 (MDA-N) was > 100 µM (inactive). For the same compound, the GI50 (SNB-19) was > 100 µM (inactive) and the GI50 (MOLT-4) was > 100 µM (inactive).
In the case of COc1ccc2nc3cc(Cl)ccc3c(NCCCNCCCNc3c4ccc(Cl)cc4nc4ccc(OC)cc34)c2c1, the GI50 (SF-539) is reported as 0.0157 µM (active), the GI50 (BT-549) is reported as 0.21 µM (active) and the GI50 (HT-29) is reported as < 0.01 µM (active). For the same compound, the GI50 (K562) was < 0.01 µM (active), the GI50 (LOX IMVI) was < 0.01 µM (active) and the GI50 (MDA-MB-231) was < 0.01 µM (active). The GI50 (786-0) was < 0.01 µM (active), the GI50 (KM12) was 0.0208 µM (active) and the GI50 (OVCAR-3) was 0.162 µM (active). The GI50 (HOP-62) was < 0.01 µM (active), the GI50 (NCI-H522) was 0.0128 µM (active) and the GI50 (SR) was < 0.01 µM (active). For the same compound, the GI50 (OVCAR-5) was < 0.0224 µM (active), the GI50 (SK-MEL-2) was 0.0404 µM (active) and the GI50 (OVCAR-4) was < 0.01 µM (active). The GI50 (OVCAR-8) was < 0.01 µM (active), the GI50 (ACHN) was < 0.01 µM (active) and the GI50 (MDA-N) was < 0.01 µM (active). For the same compound, the GI50 (SNB-19) was < 0.0179 µM (active) and the GI50 (MOLT-4) was 0.329 µM (active).

Reference: ChEMBL document CHEMBL1201862, “PubChem BioAssay data set” (2004)
